We go through 9 compounds from paper PMC7552917, “Systematic exploration of different E3 ubiquitin ligases: an approach towards potent and selective CDK6 degraders” (Chemical Science, 2020).

The nature of series [1]: elog D7.4 by chromatographic (HPLC) method. The format is physicochemical. The note with it: Polaris C18-A column, pH 7.4, read-out: elog D7.4 (experimental distribution coefficient at pH 7.4). The method, then: Supplementary Information: Physical Chemistry
N. Molecular Descriptor Calculation […]
O. Physicochemical Measurements
The determination of the elog D7.4 values was performed by a chromatographic method according to […]
The column was a Polaris C18-A column (2 mm I.D., 50 mm length, 3 μm particle size) from Agilent Technologies. A linear mobile phase gradient was applied with […] TRIS buffer adjusted to pH 7.4 and MeCN. Therefore, the gradient was run from 5% […]
between the runs with a constant flow-rate of 0.8 ml/min and a temperature of 25 °C. The output wavelength of the detector was set to 269.5 nm. In order to calibrate the log D7.4 to the retention time, 6 different drugs with known log D7.4 were dissolved in DMSO and 10 µl were injected […]
Approximately 1 mg of the samples was dissolved in DMSO and 5 µl were injected. Analyses were conducted in duplicates. Subsequently, the mean retention times of the analytes were taken to calculate their log D7.4 values with aid of the calibration line.

The target of a further series is T1, CDK4 (Homo sapiens, UniProt P11802).
T1 construct: Percentage values are normalized to DMSO-treated MM.1S cells and the respective loading controls; endogenous in cells; host or cells: MM.1S (human multiple myeloma)
T1 sequence (P11802 whole entry): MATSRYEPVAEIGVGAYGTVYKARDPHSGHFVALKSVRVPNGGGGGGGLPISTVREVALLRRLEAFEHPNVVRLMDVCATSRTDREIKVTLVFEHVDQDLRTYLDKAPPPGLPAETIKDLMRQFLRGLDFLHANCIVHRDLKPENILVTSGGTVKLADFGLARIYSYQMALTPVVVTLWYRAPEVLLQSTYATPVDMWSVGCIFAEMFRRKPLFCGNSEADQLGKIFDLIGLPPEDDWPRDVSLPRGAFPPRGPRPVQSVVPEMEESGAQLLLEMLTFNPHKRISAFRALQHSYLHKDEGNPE
As to the kind of experiment: CDK4 degradation, western blot of MM.1S cells. The format is cell-based. To be noted: MM1.S; 0.1 μM, 16 h, MM.1S cells, normalized to DMSO (100%); read-out: D CDK4: remaining CDK4 levels. An excerpt:
(§1) We determined the concentration of both kinases and CRBN, the latter in order to control the expression of the corresponding ligase. Since IMiDs, such as pomalidomide, cause the degradation of the lymphoid transcription factors Ikaros (IKZF1) and Aiolos (IKZF3) through the involvement of CRBN,[53],[54] this undesired effect was inspected. […] As further characteristics of CDK4/6d, the desired selectivity of CDK6 over CDK4 degradation and the unwanted influence on the IKZF1 concentration were determined. […] Next, we determined the concentration- and time-dependent activity of 11 (Fig. S2, ESI ^†).
(§2) Multiple myeloma, leukaemia, and murine cell lines:
(§3) After respective designated treatments, cells were washed with 1× PBS and lysed in IP lysis buffer (Pierce) containing HALT protease and phosphatase inhibitor cocktail (Thermo Scientific). Sodium dodecyl sulfate-polyacrylamide gel electrophoresis (SDS-PAGE) was performed with 5–20 µg of protein loaded per sample. Gel electrophoresis was carried out at a constant voltage. Proteins were transferred onto Immobilon-P transfer membranes (Millipore). Membranes were blocked with 5% milk in Tris Buffered Saline with 0.05% Tween 20 (TBS-T) followed by overnight incubation at 4 °C with shaking in primary antibodies diluted in 5% BSA in TBS-T. After incubation with respective secondary HRP-conjugated antibodies diluted in 5% milk in TBST, detection of proteins was performed using either WesternBright ECL HRP substrate or WesternBright Sirius HRP substrate (Advansta). Chemiluminescence was detected with ChemiDoc™ XRS+ System (Bio-Rad). For further detection of other proteins on the same membrane, membranes were subjected to incubation in Restore Western Blot Stripping Buffer, followed by re-blocking, and further probing of proteins was […]

The target of series [2] is T2, CDK6 (Homo sapiens, UniProt Q00534).
T2 construct: Percentage values are normalized to DMSO-treated MM.1S cells and the respective loading controls; endogenous in cells; host or cells: MM.1S (human multiple myeloma)
T2 sequence (Q00534 whole entry): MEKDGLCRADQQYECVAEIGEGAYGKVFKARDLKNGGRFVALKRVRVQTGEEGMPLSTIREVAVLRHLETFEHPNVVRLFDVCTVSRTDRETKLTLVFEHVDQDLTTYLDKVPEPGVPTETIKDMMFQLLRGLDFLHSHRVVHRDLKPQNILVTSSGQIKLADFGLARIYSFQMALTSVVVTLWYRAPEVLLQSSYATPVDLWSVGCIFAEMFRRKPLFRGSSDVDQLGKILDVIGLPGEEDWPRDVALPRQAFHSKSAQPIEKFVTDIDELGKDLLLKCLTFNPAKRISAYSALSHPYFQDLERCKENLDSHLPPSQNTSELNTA
As to the kind of experiment: CDK6 degradation, western blot of MM.1S cells. The note with it: 16 h, MM.1S cells; for Selectivity ratio D CDK4/D CDK6 for the degradation of CDK6 over CDK4 / remaining activity at 0.1 µM: 0.1 μM. Type of series: cell-based.
Description: as §1, §2, §3

For another series, the target named is T3, IKZF1 (Homo sapiens, UniProt Q13422+Q96SW2).
T3 construct: endogenous in cells; host or cells: MM.1S (human multiple myeloma)
T3 sequence (Q13422 whole entry): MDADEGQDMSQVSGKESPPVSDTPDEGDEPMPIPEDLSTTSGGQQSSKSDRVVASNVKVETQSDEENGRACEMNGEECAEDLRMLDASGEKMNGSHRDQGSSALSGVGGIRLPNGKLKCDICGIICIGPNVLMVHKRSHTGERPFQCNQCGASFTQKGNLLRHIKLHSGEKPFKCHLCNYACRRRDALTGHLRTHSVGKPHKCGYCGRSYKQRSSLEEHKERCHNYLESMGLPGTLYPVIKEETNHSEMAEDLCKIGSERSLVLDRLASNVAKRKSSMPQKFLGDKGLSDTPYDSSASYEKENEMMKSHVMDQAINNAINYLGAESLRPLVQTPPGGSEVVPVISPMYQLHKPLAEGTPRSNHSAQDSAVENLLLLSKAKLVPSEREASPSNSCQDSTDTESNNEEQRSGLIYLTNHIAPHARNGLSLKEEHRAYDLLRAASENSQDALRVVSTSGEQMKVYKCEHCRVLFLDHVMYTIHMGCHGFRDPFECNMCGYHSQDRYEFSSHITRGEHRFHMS
T3 sequence (Q96SW2 whole entry): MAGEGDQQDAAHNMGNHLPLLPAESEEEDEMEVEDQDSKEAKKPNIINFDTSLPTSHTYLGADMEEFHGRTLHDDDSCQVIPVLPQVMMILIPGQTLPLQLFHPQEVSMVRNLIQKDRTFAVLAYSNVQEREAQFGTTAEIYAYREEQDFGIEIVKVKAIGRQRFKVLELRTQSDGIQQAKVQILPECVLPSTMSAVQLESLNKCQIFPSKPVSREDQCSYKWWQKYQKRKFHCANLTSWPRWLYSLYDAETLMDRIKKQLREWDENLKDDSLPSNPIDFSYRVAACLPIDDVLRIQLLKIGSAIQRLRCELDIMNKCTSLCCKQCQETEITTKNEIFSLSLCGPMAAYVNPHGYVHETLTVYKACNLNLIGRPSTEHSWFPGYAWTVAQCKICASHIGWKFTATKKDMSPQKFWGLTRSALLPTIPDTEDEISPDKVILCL
T3 sequence (Q16531 whole entry partner): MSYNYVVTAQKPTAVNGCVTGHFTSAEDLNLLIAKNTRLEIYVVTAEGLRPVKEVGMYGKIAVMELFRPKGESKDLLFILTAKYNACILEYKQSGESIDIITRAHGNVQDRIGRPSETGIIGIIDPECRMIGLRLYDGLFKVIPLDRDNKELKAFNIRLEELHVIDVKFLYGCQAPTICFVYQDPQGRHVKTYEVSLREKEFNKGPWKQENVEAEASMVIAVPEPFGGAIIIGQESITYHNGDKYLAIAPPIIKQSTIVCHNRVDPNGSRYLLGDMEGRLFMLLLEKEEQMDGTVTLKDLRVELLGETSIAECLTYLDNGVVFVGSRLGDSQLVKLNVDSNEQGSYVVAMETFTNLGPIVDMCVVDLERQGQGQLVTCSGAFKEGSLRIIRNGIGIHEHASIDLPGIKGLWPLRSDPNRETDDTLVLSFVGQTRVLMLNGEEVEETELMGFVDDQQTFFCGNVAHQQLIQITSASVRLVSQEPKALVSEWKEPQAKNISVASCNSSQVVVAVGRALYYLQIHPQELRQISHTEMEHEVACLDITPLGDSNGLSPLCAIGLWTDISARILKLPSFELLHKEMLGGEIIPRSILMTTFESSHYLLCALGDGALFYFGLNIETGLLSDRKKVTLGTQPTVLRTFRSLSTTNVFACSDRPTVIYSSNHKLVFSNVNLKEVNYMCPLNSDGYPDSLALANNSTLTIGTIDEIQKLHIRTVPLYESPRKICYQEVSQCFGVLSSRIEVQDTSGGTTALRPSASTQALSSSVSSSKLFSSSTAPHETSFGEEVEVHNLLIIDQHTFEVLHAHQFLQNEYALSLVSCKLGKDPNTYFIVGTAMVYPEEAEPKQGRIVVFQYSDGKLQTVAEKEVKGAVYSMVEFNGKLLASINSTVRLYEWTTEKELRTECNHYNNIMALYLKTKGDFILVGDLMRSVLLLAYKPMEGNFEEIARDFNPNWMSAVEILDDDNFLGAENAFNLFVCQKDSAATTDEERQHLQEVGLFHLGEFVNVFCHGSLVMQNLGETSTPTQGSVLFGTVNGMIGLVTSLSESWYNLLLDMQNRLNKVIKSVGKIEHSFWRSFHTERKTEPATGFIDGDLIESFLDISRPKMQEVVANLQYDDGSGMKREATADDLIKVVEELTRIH
Put plainly: Neosubstrate IKZF1 degradation, western blot of MM.1S cells.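 Further: test concentration 0.1 µM.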 The format is cell-based. To be noted: MM1.S, 16 h, normalized to DMSO (100%), read-out: D IKZF1: remaining IKZF1 levels.
Description: as §1, §2, §3
Background: A western blot detects proteins with antibodies after separation by electrophoresis.

In series [3] the target is T4, CDK6 (Mus musculus, UniProt Q64261).
T4 construct: western blotting experiments with the murine myeloid 32D cell line and the murine pro-B-cell line Ba/F3; endogenous in cells; host or cells: 32D (murine myeloid) and Ba/F3 (murine pro-B)
T4 sequence (Q64261 whole entry): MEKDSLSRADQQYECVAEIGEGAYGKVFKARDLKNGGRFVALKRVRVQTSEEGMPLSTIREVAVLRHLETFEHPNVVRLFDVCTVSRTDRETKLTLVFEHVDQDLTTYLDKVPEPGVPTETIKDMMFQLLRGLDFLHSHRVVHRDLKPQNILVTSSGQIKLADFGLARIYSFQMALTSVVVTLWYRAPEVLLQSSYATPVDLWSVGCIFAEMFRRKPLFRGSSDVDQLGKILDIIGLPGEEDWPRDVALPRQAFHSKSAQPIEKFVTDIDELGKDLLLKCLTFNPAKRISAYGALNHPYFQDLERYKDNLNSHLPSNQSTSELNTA
As to the kind of experiment: CDK6 degradation in murine cell lines 32D and Ba/F3, western blot. Type of series: cell-based. The note with it: 16 h.
Description: When bound to IMiDs, human CRBN induces the recruitment of the neosubstrates IKZF1 and IKZF3 via a Val-388 interaction,[53],[55] leading to their subsequent proteasomal degradation. […] The previously reported BRD4 degrader dBET1 was capable of binding to murine CRBN and performed as an active PROTAC in murine cells.[57],[58] To test whether our CRBN-based degrader 11 maintains CDK6 degradation across different species, we performed western blotting experiments with the murine myeloid 32D cell line and the murine pro-B-cell line Ba/F3 (Fig. 2A). […] While the activity of BSJ-03-123 (8) was attenuated at this concentration, 11 mediated on-target effects at concentrations as low as 10 nM (Fig. 2B).
Fig. 2 CDK6 degradation by CRBN-based degrader 11 is conserved in murine cell lines. (A) Human cell lines MM.1S and murine cell lines 32D and Ba/F3 were treated with vehicle, pomalidomide (POM), CDK6-selective degrader BSJ-03-123 (8), negative control 21, or PROTAC 11 at 0.1 μM for 16 h; (B) CDK6-degradation is induced in a dose-dependent manner in murine cells. Murine cell lines 32D and Ba/F3 were treated with PROTAC 11 at indicated concentrations for 16 h.
as §2
After respective designated treatments, cells were washed with 1× PBS and lysed in IP lysis buffer (Pierce) containing HALT protease and phosphatase inhibitor cocktail (Thermo Scientific). Sodium dodecyl sulfate-polyacrylamide gel electrophoresis (SDS-PAGE) was performed with 5–20 µg of protein loaded per sample. Gel electrophoresis was carried out at a constant voltage. Proteins were transferred onto Immobilon-P transfer membranes (Millipore). Membranes were blocked with 5% milk in Tris Buffered Saline with 0.05% Tween 20 (TBS-T) followed by overnight incubation at 4 °C with shaking in primary antibodies diluted in 5% BSA in TBS-T. After incubation with respective secondary HRP-conjugated antibodies diluted in 5% milk in TBST, detection of proteins was performed using either WesternBright ECL HRP substrate or WesternBright Sirius HRP substrate (Advansta). Chemiluminescence was detected with ChemiDoc™ XRS+ System (Bio-Rad). For further detection of other proteins on the same membrane, membranes were subjected to incubation in Restore Western Blot Stripping Buffer, followed by re-blocking, and further probing of proteins was carried out. Quantification was performed using ImageJ (National Institutes of Health). […]

The next series has as its system MDA-MB-231 cells. As to the kind of experiment: Cell viability assay (CellTiter-Glo), MDA-MB-231 breast cancer cells. The format is cell-based, human. To be noted: 96 h. As to the method: Breast cancer cell lines:
To access the compound effect on cell viability, cells were plated in 384-well tissue culture-treated plates (Greiner Bio One). Twenty-four hours later, tested compounds were added into culture to the desired concentrations. Cell viability was measured by using CellTiter-Glo® Luminescent Cell Viability Assay (Promega) at day 4 or day 7 post-treatment and normalized by non-treated controls. […]
Dose response curves were modeled and plotted by using GraphPad Prism software (GraphPad Software). Statistical analysis was performed using GraphPad Prism software (GraphPad Software).
Variance of biological replicates is represented as the standard error of the mean (SEM) or as the […]

Where [4] appears, read: MM1.S, normalized to DMSO (100%), read-out: D CDK6: remaining CDK6 levels.

As to `CC(=O)c1c(C)c2cnc(Nc3ccc(N4CCN(C(=O)CCCCCNc5cccc6c5C(=O)N(C5CCC(=O)NC5=O)C6=O)CC4)cn3)nc2n(C2CCCC2)c1=O` (centres unmarked) [compound 11], the chromatographic logD in series [1] was 3.4. In addition, the remaining activity at 0.1 µM at CDK4 is 25%; on CDK6 [2] (setting [4]) it was 11%; at IKZF1, 1%. For the same compound, the “Selectivity ratio D CDK4/D CDK6 for the degradation of CDK6 over CDK4” value (from here on “Selectivity ratio D CDK4/D CDK6”) at CDK6 [2] came to 2.3. Also, at CDK6 [3] (32D and Ba/F3 cells, 0.1 μM), the “CDK6 degradation in murine cells” value is “induced strong CDK6 degradation”. The “Lowest concentration mediating on-target effects (CDK6 degradation) in murine cells” value on CDK6 [3] (32D and Ba/F3 cells) is given as 10 nM.

On to `CC(=O)c1c(C)c2cnc(Nc3ccc(N4CCN(C(=O)CCCCCOCCCCCCOCCCCCCNc5cccc6c5C(=O)N(C5CCC(=O)NC5=O)C6=O)CC4)cn3)nc2n(C2CCCC2)c1=O` (centres unmarked) [compound 17], for which the chromatographic logD in series [1] is 5.2. Also, the values for the remaining activity at 0.1 µM on CDK4, at CDK6 [2] (setting [4]) and at IKZF1 were 86%, 51% and 18%, respectively. The “Selectivity ratio D CDK4/D CDK6” value at CDK6 [2] worked out at 1.7.

Take `CC(=O)c1c(C)c2cnc(Nc3ccc(N4CCN(C(=O)CCCCCOCCCCOCCCCOCCCCNc5cccc6c5C(=O)N(C5CCC(=O)NC5=O)C6=O)CC4)cn3)nc2n(C2CCCC2)c1=O` (centres unmarked) [compound 18]: the chromatographic logD in series [1] is 4.4. Also, the figures for the remaining activity at 0.1 µM on CDK4, on CDK6 [2] (setting [4]) and on IKZF1 were 57%, 17% and 5.9%, respectively. For the same compound, on CDK6 [2], the “Selectivity ratio D CDK4/D CDK6” value was 3.4.

In the case of `CC(=O)c1c(C)c2cnc(Nc3ccc(N4CCN(C(=O)CCCCCOCCCCOCCCCOCCCCOCCCCCCNc5cccc6c5C(=O)N(C5CCC(=O)NC5=O)C6=O)CC4)cn3)nc2n(C2CCCC2)c1=O` (centres unmarked) [compound 19], in series [1], the chromatographic logD came to 5.4. Further, the remaining activity at 0.1 µM is greater than 95% on CDK4, 51% at CDK6 [2] (setting [4]) and 35% at IKZF1.

In the case of `CC(=O)c1c(C)c2cnc(Nc3ccc(N4CCN(C(=O)CCCCCOCCOCCOCCOCCOCCOCCCCCCNc5cccc6c5C(=O)N(C5CCC(=O)NC5=O)C6=O)CC4)cn3)nc2n(C2CCCC2)c1=O` (centres unmarked) [compound 20], the chromatographic logD in series [1] is 3.7. The remaining activity at 0.1 µM was found to be 86% at CDK4, 16% on CDK6 [2] (setting [4]) and 5.8% on IKZF1. Besides, the “Selectivity ratio D CDK4/D CDK6” value on CDK6 [2] came to 5.4.

As for `CC(=O)c1c(C)c2cnc(Nc3ccc(N4CCN(C(=O)CCCCCNc5cccc6c5C(=O)N(C5CCC(=O)N(C)C5=O)C6=O)CC4)cn3)nc2n(C2CCCC2)c1=O` (centres unmarked) [compound 21], in series [1], the chromatographic logD was determined as 3.6. The values for the remaining activity at 0.1 µM at CDK4, on CDK6 [2] (setting [4]) and on IKZF1 were 95%, greater than 95% and 93%, respectively.

Turning to `CC(=O)c1c(C)c2cnc(Nc3ccc(N4CCN(CCCCCCCC(=O)N[C@H](C(=O)N5C[C@H](O)C[C@H]5C(=O)NCc5ccc(-c6scnc6C)cc5)C(C)(C)C)CC4)cn3)nc2n(C2CCCC2)c1=O` [compound 22], the chromatographic logD in series [1] was 3.3. Further, the remaining activity at 0.1 µM at CDK4 came out at 12%; at CDK6 [2] (setting [4]), 2.9%. Besides, the “Selectivity ratio D CDK4/D CDK6” value on CDK6 [2] worked out at 4.1. Also, the remaining activity at 1 µM on CDK6 [2] (MM1.S, 1 μM, normalized to DMSO (100%), read-out: D CDK6: remaining CDK6 levels) is 4.1%. Besides, the “CDK6 degradation in murine cells” value at CDK6 [3] (Ba/F3 and 32D cells, 1 μM) is listed as “pronounced CDK6 degradation”.

In the case of `CC(=O)c1c(C)c2cnc(Nc3ccc(N4CCN(CCCCCCCC(=O)N[C@H](C(=O)N5C[C@@H](O)C[C@H]5C(=O)NCc5ccc(-c6scnc6C)cc5)C(C)(C)C)CC4)cn3)nc2n(C2CCCC2)c1=O` [compound 26], in series [1], the chromatographic logD was found to be 3.2. For the same compound, the remaining activity at 0.1 µM at CDK4 and at CDK6 [2] (setting [4]) was greater than 95% throughout. The “Inhibitory activity on cell viability relative to palbociclib” value with MDA-MB-231 cells was “inhibitory activity comparable to palbociclib”.

As for `CC(=O)c1c(C)c2cnc(Nc3ccc(N4CCN(CCOCCOCCOc5cc(-c6scnc6C)ccc5CNC(=O)[C@@H]5C[C@H](O)CN5C(=O)[C@H](C(C)C)N5Cc6ccccc6C5=O)CC4)cn3)nc2n(C2CCCC2)c1=O` [compound 32], in series [1], the chromatographic logD stood at 3. Further, the remaining activity at 0.1 µM at CDK4 was 82%; at CDK6 [2] (setting [4]), greater than 95%. The “Inhibitory activity on cell viability relative to palbociclib” value in the series with MDA-MB-231 cells was “inhibitory activity comparable to palbociclib”.
